Data taken from article PMC12494831, “Discovery of new pyridine 3-carboxylic acid-based pharmacophores as dual anti-inflammatory and anti-hyperglycemic agents” (Scientific Reports, 2025).

Assays:
α-amylase (EC.3.2.1.1) = target: T1, α-amylase (EC.3.2.1.1) (Homo sapiens, UniProt P04746); experiment: In vitro α-amylase inhibition (starch/DNS, 540 nm); assay type: biochemical
T1 sequence (P04746 16-511): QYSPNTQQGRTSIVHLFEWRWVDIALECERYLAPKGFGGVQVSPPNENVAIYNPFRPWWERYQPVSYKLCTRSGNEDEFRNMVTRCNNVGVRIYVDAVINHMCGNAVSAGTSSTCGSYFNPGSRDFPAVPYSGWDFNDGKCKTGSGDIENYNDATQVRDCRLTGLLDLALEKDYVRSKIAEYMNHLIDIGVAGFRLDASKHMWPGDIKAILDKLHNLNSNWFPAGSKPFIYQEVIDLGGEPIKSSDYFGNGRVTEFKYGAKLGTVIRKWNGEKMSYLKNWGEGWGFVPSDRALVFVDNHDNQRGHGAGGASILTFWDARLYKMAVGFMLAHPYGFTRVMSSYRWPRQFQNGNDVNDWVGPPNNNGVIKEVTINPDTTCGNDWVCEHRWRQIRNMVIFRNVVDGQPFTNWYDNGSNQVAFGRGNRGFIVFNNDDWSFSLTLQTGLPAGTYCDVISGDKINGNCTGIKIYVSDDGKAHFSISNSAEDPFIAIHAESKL

[1] = ABTS cation radical scavenging (734 nm)
[2] = tested on: RAW macrophage cells (RAW 264.7); experiment: MTT cell viability assay; assay type: cell-based; conditions: for MTT assay Average OD: control average OD 0.924
Description: (§1) The toxicity of the molecule was investigated by the MTT cell viability assay employing RAW macrophage cells. For this study, two lead compounds, 2b and 2e, were screened based on the in vitro results. […] (The OD values in Tables S6 and S7)
(§2) The MTT ((3-(4,5-Dimethylthiazol-2-yl)-2,5-Diphenyltetrazolium Bromide)) assay was employed to determine viability for the synthesized potent compounds 2b and 2e; the cell viability results portray the compounds’ cytotoxicity. The assay was conducted on RAW macrophage cells (RAW 264.7) with various dilutions of 2b and 2e (10, 20, 30, 40, and 50 µM). The results were confirmed with a control.

MTT cell viability assay = assay type: cell-based; conditions: mouse, RAW 264.7 macrophage cells, control 100
Description: as §1, §2

[3] = DPPH radical scavenging (517 nm)
human RBC = experiment: Anti-inflammatory activity: hypotonic solution-induced human RBC hemolysis (560 nm); assay type: cell-based

SMILES: COC(=O)/C=C/c1ccc(OC(=O)c2cccnc2)c(OC)c1 [Compound 2b, 2-Methoxy-4-(3-methoxy-3-oxoprop-1-en-1-yl) phenyl nicotinate]
- α-Amylase Inhibition % (α-amylase (EC.3.2.1.1); 2 µg): 80.52%
- α-Amylase Inhibition % (α-amylase (EC.3.2.1.1); 4 µg): 80.38%
- α-Amylase Inhibition % (α-amylase (EC.3.2.1.1); 6 µg): 77.01%
- α-Amylase Inhibition % (α-amylase (EC.3.2.1.1); 8 µg): 69.1%
- α-Amylase Inhibition % (α-amylase (EC.3.2.1.1); 10 µg): 54.9%
- IC50 (α-amylase (EC.3.2.1.1); test concentrations 2-10 µg, read-out: α-Amylase IC50±SD (converted)): 4.37 µM
- ABTS Inhibition % ([1]; 20 µM): 59.6%
- ABTS Inhibition % ([1]; 40 µM): 60.8%
- ABTS Inhibition % ([1]; 60 µM): 60.9%
- ABTS Inhibition % ([1]; 80 µM): 61%
- ABTS Inhibition % ([1]; 100 µM): 61.4%
- IC50 ([1]; read-out: ABTS IC50±SD): 19.9 ± 0.25 µM
- MTT assay Triplicate values OD1 ([2]; 10 µM): 0.790
- MTT assay Triplicate values OD2 ([2]; 10 µM): 0.792
- MTT assay Triplicate values OD3 ([2]; 10 µM): 0.785
- MTT assay Average OD ([2]; 10 µM): 0.789
- MTT assay Triplicate values OD1 ([2]; 20 µM): 0.719
- MTT assay Triplicate values OD2 ([2]; 20 µM): 0.712
- MTT assay Triplicate values OD3 ([2]; 20 µM): 0.711
- MTT assay Average OD ([2]; 20 µM): 0.714
- MTT assay Triplicate values OD1 ([2]; 30 µM): 0.634
- MTT assay Triplicate values OD2 ([2]; 30 µM): 0.629
- MTT assay Triplicate values OD3 ([2]; 30 µM): 0.636
- MTT assay Average OD ([2]; 30 µM): 0.633
- MTT assay Triplicate values OD1 ([2]; 40 µM): 0.542
- MTT assay Triplicate values OD2 ([2]; 40 µM): 0.541
- MTT assay Triplicate values OD3 ([2]; 40 µM): 0.546
- MTT assay Average OD ([2]; 40 µM): 0.543
- MTT assay Triplicate values OD1 ([2]; 50 µM): 0.418
- MTT assay Triplicate values OD2 ([2]; 50 µM): 0.416
- MTT assay Triplicate values OD3 ([2]; 50 µM): 0.423
- MTT assay Average OD ([2]; 50 µM): 0.419
- Toxicity, outcome of the MTT cell viability assay (in words) ([2]; RAW macrophage cells): viable for the cell line
- viability at 10 µM (MTT cell viability assay; 10 µM): 85.4%
- viability at 20 µM (MTT cell viability assay; 20 µM): 77.4%
- viability at 30 µM (MTT cell viability assay; 30 µM): 68.5%
- viability at 40 µM (MTT cell viability assay; 40 µM): 58.8%
- viability at 50 µM (MTT cell viability assay; 50 µM): 45.3%
- DPPH Inhibition % ([3]; 20 µM): 66.2%
- DPPH Inhibition % ([3]; 40 µM): 86.32%
- DPPH Inhibition % ([3]; 60 µM): 87.6%
- DPPH Inhibition % ([3]; 80 µM): 88%
- DPPH Inhibition % ([3]; 100 µM): 88.4%
- IC50 ([3]; read-out: DPPH IC50±SD): 15.63 ± 0.13 µM
- inhibition at 20 µM (human RBC; 20 µM): 60%
- inhibition at 40 µM (human RBC; 40 µM): 69.9%
- inhibition at 60 µM (human RBC; 60 µM): 71%
- inhibition at 80 µM (human RBC; 80 µM): 76%
- inhibition at 100 µM (human RBC; 100 µM): 85.8%
- IC50 (human RBC; induced human RBC hemolysis, read-out: Inflammatory IC50±SD): 18.41 ± 0.13 µM
